Reference: patent publication US12077503B2, “Substituted cyclic amides and their use as herbicides” (FMC CORPORATION, priority 2015, dated 2024)

Tests used:
Format in all cases: in vivo
[1] = tested on: Kochia (Kochia scoparia); experiment: Test A preemergence; settings: Bassia scoparia, pre-emergence, 240 h, 0 to 100 scale (0 no effect, 100 complete control), read-out: Plant response rating, Kochia
In short: (§1)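 Each rating is a visual injury score from 0 to 100 given about 10 d after treatment, judged against untreated controls kept alongside in the greenhouse. In loam soil–sand blend, seeds got a preemergence directed soil spray, while postemergence plants were 2 to 10 cm tall at spraying.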

[2] = tested on: ragweed (common ragweed, Ambrosia elatior); experiment: Test A preemergence; settings: Ambrosia artemisiifolia, pre-emergence, 240 h, 0 to 100 scale (0 no effect, 100 complete control), read-out: Plant response rating, Ragweed
In short: as §1

[3] = tested on: giant foxtail (Setaria faberii); experiment: Test A preemergence; settings: Setaria faberi, pre-emergence, 240 h, 0 to 100 scale (0 no effect, 100 complete control), read-out: Plant response rating, Foxtail, Giant
In short: as §1

[4] = tested on: ryegrass, Italian (Italian ryegrass, Lolium multiflorum); experiment: Test A preemergence; settings: Lolium multiflorum, pre-emergence, 240 h, 0 to 100 scale (0 no effect, 100 complete control), read-out: Plant response rating, Ryegrass, Italian
In short: as §1

[5] = tested on: pigweed (Amaranthus retroflexus); experiment: Test A preemergence; settings: Amaranthus retroflexus, pre-emergence, 240 h, 0 to 100 scale (0 no effect, 100 complete control), read-out: Plant response rating, Pigweed
[6] = tested on: Galium (catchweed bedstraw, Galium aparine); experiment: Test A postemergence; settings: Galium, post-emergence, 240 h, Postemergence, read-out: Plant response rating, Galium
In short: as §1

[7] = tested on: Kochia (Kochia scoparia); experiment: Test A postemergence; settings: Bassia scoparia, post-emergence, 240 h, Postemergence, read-out: Plant response rating, Kochia
In short: as §1

[8] = tested on: ragweed (common ragweed, Ambrosia elatior); experiment: Test A postemergence; settings: Ambrosia artemisiifolia, post-emergence, 240 h, Postemergence, read-out: Plant response rating, Ragweed
In short: as §1

[9] = tested on: giant foxtail (Setaria faberii); experiment: Test A postemergence; settings: Setaria faberi, post-emergence, 240 h, Postemergence, read-out: Plant response rating, Foxtail, Giant
In short: as §1

[10] = tested on: ryegrass, Italian (Italian ryegrass, Lolium multiflorum); experiment: Test A postemergence; settings: Lolium multiflorum, post-emergence, 240 h, Postemergence, read-out: Plant response rating, Ryegrass, Italian
In short: as §1

[11] = tested on: blackgrass (Alopecurus myosuroides); experiment: Test A postemergence; settings: Alopecurus myosuroides, post-emergence, 240 h, Postemergence, read-out: Plant response rating, Blackgrass
In short: as §1

[12] = tested on: pigweed (Amaranthus retroflexus); experiment: Test A postemergence; settings: Amaranthus retroflexus, post-emergence, 240 h, Postemergence, read-out: Plant response rating, Pigweed
In short: as §1

[13] = tested on: barnyardgrass (Echinochloa crus-galli); experiment: Test A postemergence; settings: Echinochloa crus-galli, post-emergence, 240 h, Postemergence, read-out: Plant response rating, Barnyardgrass
In short: as §1

[14] = tested on: corn (Zea mays); experiment: Test A postemergence; settings: Zea mays, post-emergence, 240 h, Postemergence
In short: as §1

[15] = tested on: wheat (Triticum aestivum); experiment: Test A postemergence; settings: Triticum aestivum, post-emergence, 240 h, Postemergence, read-out: Plant response rating, Wheat
In short: as §1

[16] = 125 g ai/ha, visual injury after approx. 10 d, 0 to 100 scale, 0 no effect, 100 complete control
[17] = 500 g ai/ha, visual injury, 0 to 100 scale (0 no effect, 100 complete control), approx. 10 d

Cc1ccc([C@H]2CN(C)C(=O)[C@@H]2C(=O)Nc2ccccc2F)cc1Cl [Compound 1384]
pest or weed control at 500 g/ha ([1]; 500 g ai/ha, preemergence): 70%
pest or weed control at 125 g/ha ([1]; Preemergence, 125 g ai/ha): 30%
pest or weed control at 500 g/ha ([2]; 500 g ai/ha, preemergence): 0%
pest or weed control at 125 g/ha ([2]; Preemergence, 125 g ai/ha): 0%
pest or weed control at 500 g/ha ([3]; 500 g ai/ha, preemergence): 90%
pest or weed control at 125 g/ha ([3]; Preemergence, 125 g ai/ha): 90%
pest or weed control at 500 g/ha ([4]; 500 g ai/ha, preemergence): 70%
pest or weed control at 125 g/ha ([4]; Preemergence, 125 g ai/ha): 30%
pest or weed control at 500 g/ha ([5]; 500 g ai/ha, preemergence): 30%
pest or weed control at 125 g/ha ([5]; Preemergence, 125 g ai/ha): 30%
pest or weed control at 125 g/ha [6, 16]: 30%
pest or weed control at 500 g/ha [6, 17]: 70%
pest or weed control at 125 g/ha [7, 16]: 40%
pest or weed control at 500 g/ha [7, 17]: 60%
pest or weed control at 125 g/ha [8, 16]: 40%
pest or weed control at 500 g/ha [8, 17]: 40%
pest or weed control at 125 g/ha [9, 16]: 80%
pest or weed control at 500 g/ha [9, 17]: 90%
pest or weed control at 125 g/ha [10, 16]: 30%
pest or weed control at 500 g/ha [10, 17]: 30%
pest or weed control at 125 g/ha [11, 16]: 0%
pest or weed control at 500 g/ha [11, 17]: 30%
pest or weed control at 125 g/ha [12, 16]: 0%
pest or weed control at 500 g/ha [12, 17]: 20%
pest or weed control at 125 g/ha [13, 16]: 90%
pest or weed control at 500 g/ha [13, 17]: 90%
Corn plant response rating (crop injury, 0 = no effect, 100 = complete kill) at 125 g/ha [14, 16]: 70%
Corn plant response rating (crop injury, 0 = no effect, 100 = complete kill) at 500 g/ha [14, 17]: 90%
plant injury at 125 g/ha [15, 16]: 0%
plant injury at 500 g/ha [15, 17]: 50%
